Data reported in patent US12060388B2, “Cell-penetrating peptides and methods of use thereof” (priority 2018, dated 2024).

Columns and labels:
[1] = test system: HPV16 PsV; assay: Inhibition of HPV16 PsV infection of HaCaT keratinocytes; assay type: cell-based; details: 14 μM, MOI of 1, 48 h.p.i.
From the text: FIG. 18A (top) depicts sequences of L2 peptides. […] Amino acid substitutions in the CPP or RBS mutant peptides are shown in orange and blue, respectively. Bottom: RBS and flanking sequences of indicated HPV L2 proteins or DMT1-II. FIG. 18B depicts an inhibitory dose-response curve for P16/16 peptide. 5×10^4 HeLa-S3 in 24-well plates were pretreated with various concentrations of P16/16 for one hour prior to infection with HPV pseudovirus (PsV) at multiplicity of infection (MOI) of 1. Peptide was left in the medium for the duration of the experiment. Cells were assessed by flow cytometry to determine the fraction of cells expressing reporter protein HcRed at 48 hours post-infection (h.p.i.). […] Forty-eight h.p.i., cells were assessed by flow cytometry to determine fraction of cells expressing reporter protein HcRed. […] HaCaT keratinocytes were infected at MOI of 1 with HPV16 PsV in the presence and absence of 14 μM P16/16, and infectivity was assessed 48 h.p.i. by flow cytometry for HcRed fluorescence. […] Successful infection by HPV16 and HPV16 PsV was assessed by quantitative reverse transcription-PCR (qRT-PCR) for expression of HPV early region and HcRed mRNA, respectively, and normalized to infection by the cognate virus in the absence of peptide. Background signal determined with non-cognate primers was <0.01%.

[2] = test system: TGN46 / HPV16 L1; assay: Proximity ligation assay for L1 and TGN46 in peptide-treated infected cells; assay type: cell-based; details: 14 μM, MOI of 200, 16 h.p.i.
Procedure: HeLa-S3 cells grown on glass coverslips for 16 hours were incubated for one hour with or without 14 μM P16/16, followed by mock-infection or infection with HPV16 PSV at MOI of 200. 8 and 16 h.p.i., cells were processed for PLA with anti-L1 antibody and an antibody recognizing EEA1 (FIG. 20A) or TGN46 (FIG. 20B). PLA was performed as in FIG. 19B. The PLA signal for EEA1/L1 was normalized to that of cells infected with HPV16 PsV in the absence of peptide at 8 h.p.i., while the TGN46/L1 signal was normalized to untreated cells at 16 h.p.i.
For the proximity ligation assay, after an hour incubation with peptides, HeLa-S3 cells were infected with wild-type PSV at MOI of 200 or mutant PsV containing the same number of reporter plasmid genomes. Infected cells were fixed at 8 or 16 h.p.i., permeabilized, and incubated with 1:100 dilutions of anti-L1 antibody and an antibody recognizing EEA1, TGN46, or VPS35. […] The nuclei were stained by using Abcam fluorescence mounting medium with DAPI and images were acquired by a Leica SP5 inverted fluorescence microscope. […] The images were processed by Fiji and quantitatively analyzed by BlobFinder software to measure total fluorescence intensity in each sample. The average fluorescence intensity per cell in each sample was normalized to the control sample as indicated in each experiment. […]

## CC[C@H](C)[C@H](NC(=O)[C@@H](NC(=O)[C@H](Cc1ccc(O)cc1)NC(=O)[C@H](CCC(N)=O)NC(=O)[C@@H]1CCCN1C(=O)[C@H](CO)NC(=O)[C@@H](N)CS)[C@@H](C)O)C(=O)N[C@H](C(=O)N[C@@H](C)C(=O)N[C@@H](CC(=O)O)C(=O)N[C@@H](C)C(=O)NCC(=O)N[C@@H](CC(=O)O)C(=O)N[C@@H](Cc1ccccc1)C(=O)N[C@@H](Cc1ccc(O)cc1)C(=O)N[C@@H](CC(C)C)C(=O)N[C@@H](Cc1c[nH]cn1)C(=O)N1CCC[C@H]1C(=O)N[C@@H](CO)C(=O)N[C@@H](Cc1ccc(O)cc1)C(=O)N[C@@H](Cc1ccc(O)cc1)C(=O)N[C@@H](CCSC)C(=O)N[C@@H](CC(C)C)C(=O)N[C@@H](CCCNC(=N)N)C(=O)N[C@@H](CCCCN)C(=O)N[C@@H](CCCNC(=N)N)C(=O)N[C@@H](CCCNC(=N)N)C(=O)N[C@@H](CCCCN)C(=O)N[C@@H](CCCNC(=N)N)C(=O)O)[C@@H](C)CC [P16/16]
[1]
  inhibition of HPV16 PsV infection in HaCaT: inhibited infection
[2]
  TGN46/L1 PLA at 16 h.p.i.: inhibited the arrival of HPV in the TGN
